Measured values taken from patent US20210317102A1, “INHIBITORS OF INTEGRATED STRESS RESPONSE PATHWAY” (Praxis Biotech LLC, priority 2019, published 2021).

Columns and labels:
[1] = test system: CHO cells; assay: Protein secretion in a CHO cell-based assay; conditions: 1 μM compound 10, media without FBS, 24 h, vs vehicle
Description: CHO cells were maintained at 37° C. and 5% CO2 in DMEM supplemented with 10% fetal bovine serum (FBS), 2 mM L-glutamine, 100 U/ml penicillin, and 100 μg/ml streptomycin. After reaching 80% of confluence, cells were detached and seeded on 6-well plates in complete media, allowed to recover for 48 h. Cells were then washed three times with PBS and treated with compound 10 at […] in 1 mL of media without FBS for 24 h. Treatment with 0.1% DMSO was used as control (vehicle). After 24 h treatment, supernatant (SN) which contains secreted proteins was extracted and protease and phosphatase inhibitors (Roche) were added to each sample. SN were centrifuged at 2,000 g for 10 min to discard any cellular debris and 900 μL SN were transferred to empty microtubes with 400 μL methanol by mixing well. 200 μL of chloroform was added to the mix and then samples were centrifuged at 14,000 g for 2 minutes. Top aqueous layer was discarded by pipetting off and 400 μL methanol is added to each sample by mixing well. Samples were then centrifuged at 17,000 g for 8 minutes and methanol was discarded by pipetting off without disturbing the protein pellet. […] Secreted proteins were analyzed by SDS-PAGE and Coomassie staining. […] Percentage was calculated as the percent relative to protein secretion levels from CHO cells treated with vehicle which correspond to 100%.

[2] = test system: ARH cells; assay: Secretion of Ig-kappa by ARH cells; assay type: cell-based; conditions: 1 µM of compound 10 for 24 hours, vs vehicle (0.1% DMSO)
Description: ARH cells were maintained at 37° C. and 5% CO2 and seeded at a density of 500,000 cell/well in RPMI supplemented with, 100 U/ml penicillin, and 100 μg/ml streptomycin in a 12-well culture plate. Cells were treated either with vehicle (0.1% DMSO) or […] of compound 10 for 24 hours. Then, culture media with cells were recovered in microtubes and centrifuged at 500 g for 5 minutes. Supernatants (SN) which contain secreted proteins were extracted and protease and phosphatase inhibitors (Roche) were added to each sample. SN were centrifuged at 2,000 g for 10 min to discard any cellular debris and 900 μL SN were transferred to empty microtubes with 400 μL methanol by mixing well. 200 μL of chloroform was added to the mix and then samples were centrifuged at 14,000 g for 2 minutes. Top aqueous layer was discarded by pipetting off and 400 μL methanol was added to each sample by mixing well. Samples were then centrifuged at 17,000 g for 8 minutes and methanol was discarded by pipetting off without disturbing the protein pellet. […] Quantification of protein bands was done by densitometry using ImageJ software.
Percent of secreted Ig kappa light chain by ARH cells treated with vehicle or compound 10 from three independent experiments is shown in FIG. 4. Percentage was calculated as the percent relative to Ig kappa secretion levels from ARH cells treated with vehicle which correspond to 100%.

With `O=C(COc1ccc(Cl)c(F)c1)N[C@H]1CC[C@H](CNC(=O)c2ccc3cc(Cl)ccc3n2)CC1` [Compound 10, trans-6-chloro-N-((4-(2-(4-chloro-3-fluorophenoxy)acetamido)cyclohexyl)methyl)quinoline-2-carboxamide] the “Secretion of proteins in CHO cells” value [1] was “increased secretion of proteins” and the “Secretion of Ig kappa light chain” value [2] was “increased the secretion of the immunoglobulin light chain kappa”.
